Reference: patent US20230276831A1, “Food/Beverage Article” (Kikkoman Corporation, priority 2020, published 2023)

System: Lactobacillus rennini (DSM 20253)
Assay: Antimicrobial action of licoricidin in soy sauce at various pH (Test Example 5)
Type: cell-based
Design: key: A: The bacterial count decreases to less than 10% of the bacterial count of the control group.; B: The bacterial count decreases to 10% or more and less than 50% of the bacterial count of the control group.; C: The bacterial count decreases to 50% or more and less than 100% of the bacterial count of control group.; D: The bacterial count is the same as the bacterial count of the control group
Details: salt 0% (w/v)
Protocol: Commercially available whole soybean soy sauce (produced by Kikkoman Corporation) was electrodialyzed and then concentrated under reduced pressure to obtain soy sauce at a salt concentration of 0% (w/v) and an alcohol concentration of 0% (v/v). Then, salt and/or alcohol was added to the above-mentioned obtained soy sauce, and hydrochloric acid or an aqueous sodium hydroxide solution was then added to adjust the pH to a desired pH. Germfree purified water was added, and the mixture was then heat-treated to produce soy sauce at the salt concentration, the alcohol concentration, and the pH shown in the following Table 17.
Licoricidin (produced by ChemFaces) was added to each of the obtained soy sauces to concentrations of 1 ppm, 5 ppm, 10 ppm, 25 ppm, and 50 ppm. Lactic acid bacteria (Lactobacillus rennini (DSM 20253)) were then added to 10^6 to 10^7 cells/mL and cultured at 30° C. for 7 days. After the culture, the number of lactic acid bacteria was measured using the GAM agar medium “Nissui”. Soy sauce to which licoricidin was not added was used as a control group, and the antimicrobial activity was evaluated in comparison with the number of lactic acid bacteria in the control group. The evaluation was performed using the same criterion as in Test Example 4.

## COc1c(CC=C(C)C)c(O)cc2c1C[C@H](c1ccc(O)c(CC=C(C)C)c1O)CO2 [Licoricidin, 4-[(R)-7-hydroxy-5-methoxy-6-(3-methyl-2-butenyl)chroman-3-yl]-2-(3-methyl-2-butenyl)-1,3-benzenediol]
pH 4.2, alcohol 0% (v/v), licoricidin 1 ppm
  Antimicrobial activity: B (The bacterial count decreases to 10% or more and less than 50% of the bacterial count of the control group.)
pH 4.2, alcohol 0% (v/v), licoricidin 5 ppm
  Antimicrobial activity: B (The bacterial count decreases to 10% or more and less than 50% of the bacterial count of the control group.)
pH 4.2, alcohol 0% (v/v), licoricidin 10 ppm
  Antimicrobial activity: A (The bacterial count decreases to less than 10% of the bacterial count of the control group.)
pH 4.2, alcohol 0% (v/v), licoricidin 25 ppm
  Antimicrobial activity: A (The bacterial count decreases to less than 10% of the bacterial count of the control group.)
pH 4.2, alcohol 0% (v/v), licoricidin 50 ppm
  Antimicrobial activity: A (The bacterial count decreases to less than 10% of the bacterial count of the control group.)
pH 4.2, alcohol 5% (v/v), licoricidin 1 ppm
  Antimicrobial activity: B (The bacterial count decreases to 10% or more and less than 50% of the bacterial count of the control group.)
pH 4.2, alcohol 5% (v/v), licoricidin 5 ppm
  Antimicrobial activity: A (The bacterial count decreases to less than 10% of the bacterial count of the control group.)
pH 4.2, alcohol 5% (v/v), licoricidin 10 ppm
  Antimicrobial activity: A (The bacterial count decreases to less than 10% of the bacterial count of the control group.)
pH 4.2, alcohol 5% (v/v), licoricidin 25 ppm
  Antimicrobial activity: A (The bacterial count decreases to less than 10% of the bacterial count of the control group.)
pH 4.2, alcohol 5% (v/v), licoricidin 50 ppm
  Antimicrobial activity: A (The bacterial count decreases to less than 10% of the bacterial count of the control group.)
pH 4.6, alcohol 0% (v/v), licoricidin 1 ppm
  Antimicrobial activity: C (The bacterial count decreases to 50% or more and less than 100% of the bacterial count of control group.)
pH 4.6, alcohol 0% (v/v), licoricidin 5 ppm
  Antimicrobial activity: B (The bacterial count decreases to 10% or more and less than 50% of the bacterial count of the control group.)
pH 4.6, alcohol 0% (v/v), licoricidin 10 ppm
  Antimicrobial activity: A (The bacterial count decreases to less than 10% of the bacterial count of the control group.)
pH 4.6, alcohol 0% (v/v), licoricidin 25 ppm
  Antimicrobial activity: A (The bacterial count decreases to less than 10% of the bacterial count of the control group.)
pH 4.6, alcohol 0% (v/v), licoricidin 50 ppm
  Antimicrobial activity: A (The bacterial count decreases to less than 10% of the bacterial count of the control group.)
pH 4.6, alcohol 5% (v/v), licoricidin 1 ppm
  Antimicrobial activity: C (The bacterial count decreases to 50% or more and less than 100% of the bacterial count of control group.)
pH 4.6, alcohol 5% (v/v), licoricidin 5 ppm
  Antimicrobial activity: A (The bacterial count decreases to less than 10% of the bacterial count of the control group.)
pH 4.6, alcohol 5% (v/v), licoricidin 10 ppm
  Antimicrobial activity: A (The bacterial count decreases to less than 10% of the bacterial count of the control group.)
pH 4.6, alcohol 5% (v/v), licoricidin 25 ppm
  Antimicrobial activity: A (The bacterial count decreases to less than 10% of the bacterial count of the control group.)
pH 4.6, alcohol 5% (v/v), licoricidin 50 ppm
  Antimicrobial activity: A (The bacterial count decreases to less than 10% of the bacterial count of the control group.)
pH 5.0, alcohol 0% (v/v), licoricidin 1 ppm
  Antimicrobial activity: D
pH 5.0, alcohol 0% (v/v), licoricidin 5 ppm
  Antimicrobial activity: B (The bacterial count decreases to 10% or more and less than 50% of the bacterial count of the control group.)
pH 5.0, alcohol 0% (v/v), licoricidin 10 ppm
  Antimicrobial activity: B (The bacterial count decreases to 10% or more and less than 50% of the bacterial count of the control group.)
pH 5.0, alcohol 0% (v/v), licoricidin 25 ppm
  Antimicrobial activity: A (The bacterial count decreases to less than 10% of the bacterial count of the control group.)
pH 5.0, alcohol 0% (v/v), licoricidin 50 ppm
  Antimicrobial activity: A (The bacterial count decreases to less than 10% of the bacterial count of the control group.)
pH 5.0, alcohol 5% (v/v), licoricidin 1 ppm
  Antimicrobial activity: C (The bacterial count decreases to 50% or more and less than 100% of the bacterial count of control group.)
pH 5.0, alcohol 5% (v/v), licoricidin 5 ppm
  Antimicrobial activity: B (The bacterial count decreases to 10% or more and less than 50% of the bacterial count of the control group.)
pH 5.0, alcohol 5% (v/v), licoricidin 10 ppm
  Antimicrobial activity: B (The bacterial count decreases to 10% or more and less than 50% of the bacterial count of the control group.)
pH 5.0, alcohol 5% (v/v), licoricidin 25 ppm
  Antimicrobial activity: A (The bacterial count decreases to less than 10% of the bacterial count of the control group.)
pH 5.0, alcohol 5% (v/v), licoricidin 50 ppm
  Antimicrobial activity: A (The bacterial count decreases to less than 10% of the bacterial count of the control group.)
pH 5.4, alcohol 0% (v/v), licoricidin 1 ppm
  Antimicrobial activity: D
pH 5.4, alcohol 0% (v/v), licoricidin 5 ppm
  Antimicrobial activity: D
pH 5.4, alcohol 0% (v/v), licoricidin 10 ppm
  Antimicrobial activity: C (The bacterial count decreases to 50% or more and less than 100% of the bacterial count of control group.)
pH 5.4, alcohol 0% (v/v), licoricidin 25 ppm
  Antimicrobial activity: C (The bacterial count decreases to 50% or more and less than 100% of the bacterial count of control group.)
pH 5.4, alcohol 0% (v/v), licoricidin 50 ppm
  Antimicrobial activity: C (The bacterial count decreases to 50% or more and less than 100% of the bacterial count of control group.)
pH 5.4, alcohol 5% (v/v), licoricidin 1 ppm
  Antimicrobial activity: B (The bacterial count decreases to 10% or more and less than 50% of the bacterial count of the control group.)
pH 5.4, alcohol 5% (v/v), licoricidin 5 ppm
  Antimicrobial activity: A (The bacterial count decreases to less than 10% of the bacterial count of the control group.)
pH 5.4, alcohol 5% (v/v), licoricidin 10 ppm
  Antimicrobial activity: A (The bacterial count decreases to less than 10% of the bacterial count of the control group.)
pH 5.4, alcohol 5% (v/v), licoricidin 25 ppm
  Antimicrobial activity: A (The bacterial count decreases to less than 10% of the bacterial count of the control group.)
pH 5.4, alcohol 5% (v/v), licoricidin 50 ppm
  Antimicrobial activity: A (The bacterial count decreases to less than 10% of the bacterial count of the control group.)
pH 5.8, alcohol 0% (v/v), licoricidin 1 ppm
  Antimicrobial activity: D
pH 5.8, alcohol 0% (v/v), licoricidin 5 ppm
  Antimicrobial activity: D
pH 5.8, alcohol 0% (v/v), licoricidin 10 ppm
  Antimicrobial activity: D
pH 5.8, alcohol 0% (v/v), licoricidin 25 ppm
  Antimicrobial activity: D
pH 5.8, alcohol 0% (v/v), licoricidin 50 ppm
  Antimicrobial activity: D
pH 5.8, alcohol 5% (v/v), licoricidin 1 ppm
  Antimicrobial activity: B (The bacterial count decreases to 10% or more and less than 50% of the bacterial count of the control group.)
pH 5.8, alcohol 5% (v/v), licoricidin 5 ppm
  Antimicrobial activity: A (The bacterial count decreases to less than 10% of the bacterial count of the control group.)
pH 5.8, alcohol 5% (v/v), licoricidin 10 ppm
  Antimicrobial activity: A (The bacterial count decreases to less than 10% of the bacterial count of the control group.)
pH 5.8, alcohol 5% (v/v), licoricidin 25 ppm
  Antimicrobial activity: A (The bacterial count decreases to less than 10% of the bacterial count of the control group.)
pH 5.8, alcohol 5% (v/v), licoricidin 50 ppm
  Antimicrobial activity: A (The bacterial count decreases to less than 10% of the bacterial count of the control group.)
